Holding throughout (assay type): in vivo
In series [1] the test system is transplanted Oryza sativa. Kind of series: Test Example 1: effect on crop, application before weed generation in submerged conditions. The conditions noted are these: Application herbicide amount 320 g/ha; Seventeenth Table. Summed up: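 Rating, on a six-step scale from almost no effect (0) to almost completely withered (5), was made three weeks after pre-emergence treatment. Treatment was surface application to flooded pots at g/ha rates, with plants kept at 25° C. to 30° C.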

Series [2] relates to directly sowed Oryza sativa. Kind of series: Test Example 3: effect on crop by application to foliage (Wagner pot, water depth 0.1-0.5 cm). The conditions noted are these: Nineteenth Table; application to foliage; application herbicide amount 320 g/ha. The method in brief: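 Post-emergence foliar application at a stated g/ha rate to plants grown 14 days from seed in alluvial soil, greenhouse 25–30 °C. Visual score after 3 weeks: 0 (≤5% effect) through 5 (≥90%).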

Series [3] relates to Galium spurium. Kind of series: Test Example 4: herbicidal effect by application to foliage (diluvial soil, plastic box). The conditions noted are these: 320 g/ha; for Q (Galium spurium) herbicidal effect grade: foliage application; for herbicidal effect, Q (Galium spurium): application to foliage. Summed up:
(§1)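 Emulsion-formulated compound, diluted to a predetermined g/ha dose, applied by small sprayer to leaves and stems of 14-day-old seedlings grown in sterilized diluvial soil. Effect rated on 0–5 herbicidal-ratio scale three weeks on.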

Series [4] concerns Beta vulgaris ssp. vulgaris. Nature of the series: Test Example 4: effect on crop by application to foliage (diluvial soil, plastic box). The conditions noted are these: 320 g/ha; for f (Beta vulgaris ssp. vulgaris) effect on crop grade: foliage application; for effect on crop, f (Beta vulgaris ssp. vulgaris): application to foliage. Summed up:
as §1

Series [5] deals with Brassica campestris L. Described as above. The following applies: 320 g/ha; for g (Brassica campestris L.) effect on crop grade: foliage application; for effect on crop, g (Brassica campestris L.): application to foliage. Summed up: as §1
For series [6], the system named is Glycine max. Described as above. The conditions noted are these: 320 g/ha; for c (Glycine max) effect on crop grade: foliage application; for effect on crop, c (Glycine max): application to foliage. Summed up: as §1
In series [7] the test system is Triticum aestivum. The series is described as above. The conditions noted are these: 320 g/ha; for e (Triticum aestivum) effect on crop grade: foliage application; for effect on crop, e (Triticum aestivum): application to foliage. The method in brief:
as §1

Series [8] deals with Zea mays. The series is described as above. The conditions noted are these: 320 g/ha; for b (Zea mays) effect on crop grade: foliage application; for effect on crop, b (Zea mays): application to foliage. The method in brief: as §1
Series [9] deals with directly sowed Oryza sativa. Described as above. The following applies: 320 g/ha; for d (directly sowed Oryza sativa) effect on crop grade: foliage application; for effect on crop, d (directly sowed Oryza sativa): application to foliage. Summed up:
as §1

As to `Cn1nnnc1NC(=O)c1ccc(C(F)(F)F)n2c(C[S+]([O-])CC(F)(F)F)nnc12` (stereo not drawn) [2-035], the “a: transplanted Oryza sativa (effect on crop grade)” value (“a: transplanted Oryza sativa” for short) in [1] is 4 (Herbicidal ratio of 70% or more and less than 90%). Moreover, in series [2], the “b (effect on crop grade)” value is recorded as 5 (Herbicidal ratio of 90% or more (almost completely withered)). In addition, in series [3], the “Q (Galium spurium) herbicidal effect grade” value is 2 (Herbicidal ratio of 20% or more and less than 40%). For the same compound, in [4], the “f (Beta vulgaris ssp. vulgaris) effect on crop grade” value was 5 (Herbicidal ratio of 90% or more (almost completely withered)). For the same compound, the “g (Brassica campestris L.) effect on crop grade” value in [5] was 5 (Herbicidal ratio of 90% or more (almost completely withered)). Further, the “c (Glycine max) effect on crop grade” value in series [6] is 2 (Herbicidal ratio of 20% or more and less than 40%). Further, the “e (Triticum aestivum) effect on crop grade” value (shortened to “e (Triticum aestivum) effect”) in [7] is 4 (Herbicidal ratio of 70% or more and less than 90%). The “b (Zea mays) effect on crop grade” value in [8] was 5 (Herbicidal ratio of 90% or more (almost completely withered)). Further, in series [9], the “d (directly sowed Oryza sativa) effect on crop grade” value is 4 (Herbicidal ratio of 70% or more and less than 90%).

`CN(C)c1nnc2c(C(=O)Nc3nnnn3C)ccc(C(F)(F)F)n12` [2-051]: in series [1], the “a: transplanted Oryza sativa” value was 4 (Herbicidal ratio of 70% or more and less than 90%). Also, the “b (effect on crop grade)” value in series [2] was 4 (Herbicidal ratio of 70% or more and less than 90%). In [3], the “Q (Galium spurium) herbicidal effect grade” value is recorded as 5 (Herbicidal ratio of 90% or more (almost completely withered)). For the same compound, the “f (Beta vulgaris ssp. vulgaris) effect on crop grade” value in series [4] is 5 (Herbicidal ratio of 90% or more (almost completely withered)). Moreover, the “g (Brassica campestris L.) effect on crop grade” value in series [5] was 4 (Herbicidal ratio of 70% or more and less than 90%). Also, the “c (Glycine max) effect on crop grade” value in series [6] is 2 (Herbicidal ratio of 20% or more and less than 40%). For the same compound, the “e (Triticum aestivum) effect” value in [7] was 4 (Herbicidal ratio of 70% or more and less than 90%). The “b (Zea mays) effect on crop grade” value in [8] is 4 (Herbicidal ratio of 70% or more and less than 90%). Besides, the “d (directly sowed Oryza sativa) effect on crop grade” value in series [9] was 4 (Herbicidal ratio of 70% or more and less than 90%).

With `Cn1nnnc1NC(=O)c1ccc(C(F)(F)F)n2c(CC[S+](C)[O-])nnc12` (stereo not drawn) [2-058], the “a: transplanted Oryza sativa” value in series [1] is 5 (Herbicidal ratio of 90% or more (almost completely withered)). Besides, the “b (effect on crop grade)” value in series [2] is listed as 5 (Herbicidal ratio of 90% or more (almost completely withered)). Moreover, the “Q (Galium spurium) herbicidal effect grade” value in series [3] is on record as 5 (Herbicidal ratio of 90% or more (almost completely withered)). In addition, the “f (Beta vulgaris ssp. vulgaris) effect on crop grade” value in series [4] is listed as 5 (Herbicidal ratio of 90% or more (almost completely withered)). Besides, in series [5], the “g (Brassica campestris L.) effect on crop grade” value was 5 (Herbicidal ratio of 90% or more (almost completely withered)). Besides, the “c (Glycine max) effect on crop grade” value in [6] was 3 (Herbicidal ratio of 40% or more and less than 70%). The “e (Triticum aestivum) effect” value in series [7] is recorded as 5 (Herbicidal ratio of 90% or more (almost completely withered)). Moreover, the “b (Zea mays) effect on crop grade” value in series [8] is 5 (Herbicidal ratio of 90% or more (almost completely withered)). Further, in series [9], the “d (directly sowed Oryza sativa) effect on crop grade” value is 5 (Herbicidal ratio of 90% or more (almost completely withered)).

Turning to `COc1ccc(CSc2nnc3c(C(=O)Nc4nnnn4C)ccc(C(F)(F)F)n23)cc1` [2-077], the “a: transplanted Oryza sativa” value in series [1] is 1 (Herbicidal ratio of 5% or more and less than 20%). The “b (effect on crop grade)” value in [2] is on record as 0 (Herbicidal ratio of 5% or less (almost no effect)). Besides, the “herbicidal effect, Q (Galium spurium)” value in series [3] was 3 (Herbicidal ratio of 40% or more and less than 70%). For the same compound, the “effect on crop, f (Beta vulgaris ssp. vulgaris)” value in [4] is recorded as 5 (Herbicidal ratio of 90% or more (almost completely withered)). Besides, the “effect on crop, g (Brassica campestris L.)” value in series [5] was 2 (Herbicidal ratio of 20% or more and less than 40%). Also, in [6], the “effect on crop, c (Glycine max)” value was 0 (Herbicidal ratio of 5% or less (almost no effect)). The “effect on crop, e (Triticum aestivum)” value in series [7] was 0 (Herbicidal ratio of 5% or less (almost no effect)). Moreover, the “effect on crop, b (Zea mays)” value in series [8] was 0 (Herbicidal ratio of 5% or less (almost no effect)). For the same compound, in [9], the “effect on crop, d (directly sowed Oryza sativa)” value was 2 (Herbicidal ratio of 20% or more and less than 40%).

Regarding `COCCN(C)c1nnc2c(C(=O)Nc3nnnn3C)ccc(C(F)(F)F)n12` [2-079], the “a: transplanted Oryza sativa” value in series [1] is 4 (Herbicidal ratio of 70% or more and less than 90%). The “b (effect on crop grade)” value in [2] is given as 5 (Herbicidal ratio of 90% or more (almost completely withered)). Also, the “herbicidal effect, Q (Galium spurium)” value in [3] is 4 (Herbicidal ratio of 70% or more and less than 90%). Moreover, the “effect on crop, f (Beta vulgaris ssp. vulgaris)” value in series [4] is listed as 5 (Herbicidal ratio of 90% or more (almost completely withered)). Besides, the “effect on crop, g (Brassica campestris L.)” value in series [5] was 5 (Herbicidal ratio of 90% or more (almost completely withered)). Also, in series [6], the “effect on crop, c (Glycine max)” value was 2 (Herbicidal ratio of 20% or more and less than 40%). The “effect on crop, e (Triticum aestivum)” value in series [7] is 2 (Herbicidal ratio of 20% or more and less than 40%). Also, the “effect on crop, b (Zea mays)” value in series [8] was 5 (Herbicidal ratio of 90% or more (almost completely withered)). In series [9], the “effect on crop, d (directly sowed Oryza sativa)” value was 4 (Herbicidal ratio of 70% or more and less than 90%).

In the case of `CCC[S+]([O-])c1nnc2c(C(=O)Nc3nnnn3C)ccc(C(F)(F)F)n12` (stereo not drawn) [2-069], the “a: transplanted Oryza sativa” value in [1] was 5 (Herbicidal ratio of 90% or more (almost completely withered)). Moreover, in [2], the “b (effect on crop grade)” value is 5 (Herbicidal ratio of 90% or more (almost completely withered)). Besides, the “Q (Galium spurium) herbicidal effect grade” value in series [3] is 4 (Herbicidal ratio of 70% or more and less than 90%). For the same compound, the “f (Beta vulgaris ssp. vulgaris) effect on crop grade” value in [4] is listed as 5 (Herbicidal ratio of 90% or more (almost completely withered)). For the same compound, the “g (Brassica campestris L.) effect on crop grade” value in series [5] was 5 (Herbicidal ratio of 90% or more (almost completely withered)). For the same compound, the “c (Glycine max) effect on crop grade” value in [6] was 4 (Herbicidal ratio of 70% or more and less than 90%). Also, the “e (Triticum aestivum) effect” value in [7] was 3 (Herbicidal ratio of 40% or more and less than 70%). The “b (Zea mays) effect on crop grade” value in series [8] is on record as 5 (Herbicidal ratio of 90% or more (almost completely withered)). Further, in [9], the “d (directly sowed Oryza sativa) effect on crop grade” value is 4 (Herbicidal ratio of 70% or more and less than 90%).

On to `Cn1nnnc1NC(=O)c1ccc(C(F)(F)F)n2c(-c3cc(Cl)cc(Cl)c3)nnc12` [2-064], for which, in [1], the “a: transplanted Oryza sativa” value was 3 (Herbicidal ratio of 40% or more and less than 70%). Moreover, the “b (effect on crop grade)” value in [2] is recorded as 0 (Herbicidal ratio of 5% or less (almost no effect)). Besides, the “Q (Galium spurium) herbicidal effect grade” value in [3] is 1 (Herbicidal ratio of 5% or more and less than 20%). Besides, the “f (Beta vulgaris ssp. vulgaris) effect on crop grade” value in series [4] was 4 (Herbicidal ratio of 70% or more and less than 90%). The “g (Brassica campestris L.) effect on crop grade” value in series [5] was 3 (Herbicidal ratio of 40% or more and less than 70%). In addition, the “c (Glycine max) effect on crop grade” value in [6] is 0 (Herbicidal ratio of 5% or less (almost no effect)). For the same compound, in [7], the “e (Triticum aestivum) effect” value is reported as 0 (Herbicidal ratio of 5% or less (almost no effect)). Further, the “b (Zea mays) effect on crop grade” value in series [8] is 0 (Herbicidal ratio of 5% or less (almost no effect)). For the same compound, the “d (directly sowed Oryza sativa) effect on crop grade” value in series [9] was 3 (Herbicidal ratio of 40% or more and less than 70%).
